Test results: publication PMC5104457, “ATP-Competitive MLKL Binders Have No Functional Impact on Necroptosis” (PLoS ONE, 2016)

Tests used:
N-terminal domain HSP90α = target: T1, N-terminal domain HSP90α (Homo sapiens, UniProt P07900); experiment: Differential scanning fluorimetry (thermal shift), Hsp90α N-terminal domain; format: binding; settings: 10 μM compound, Hsp90α catalytic domain
T1 construct: the N-terminal domain HSP90α; made in house
Method: To measure the thermal stabilization of the proteins upon compound binding we employed differential scanning fluorimetry (DSF). The kinase domain of RIPK1 and the N-terminal domain HSP90α were expressed and purified as previously described. The pseudokinase MLKL-1, RIPK1 and Hsp90 were melted at 1μM final concentrations in 25mM HEPES pH 8.0, 250mM NaCl and 2.5mM DTT. Compounds were added to a final concentration of 10 μ M with a final DMSO concentration of 5%. The complexes were incubated on ice for 30 minutes. Protein Thermal Shift dye (Life Technologies) was added to 1X. The fluorescence intensities were measured using a Quantstudio real-time PCR system (Life Technologies) with excitation at 470 nm and emission at 586 nm. The samples, measured in triplicate, were heated from 25 to 85°C with a heating rate of […].

FADD (-/-) Jurkat cells = experiment: Viability experiment in the absence of TNF; format: cell-based; settings: FADD deficient Jurkat cells, Fig 3A
Method: Necroptosis assays were performed at Charles River Laboratories (United Kingdom) and at Biogen. […] On the day of the experiment, cells were counted using Nexcelom Bioscience Cell Meter Vision and pelleted by centrifugation. Cell pellets were resuspended in fresh medium at 500,000 cells per mL and transferred to assay-ready compound plates prepared in 384-well white TC plates (Greiner #781080) at 20μl cells per well. Cells and compound were incubated at room temperature for 30 minutes followed by +/- stimulation with 15ng/ml TNF-α (Cell signalling Technologies #8902LF) overnight at 37°C. In the morning, plates were equilibrated to room temperature for 30 minutes and 25μl of CellTiter-Glow (CellTiter-Glo 2.0 Assay, Promega # G9243) diluted 1:4 in PBS was added to each well and allowed to incubate for 10 minutes at room temperature. Luminescence was read on an Envision plate reader (Perkin Elmer). Percent viability values are calculated from separate dose response experiments identical to the percent rescue experiment except that no TNF is added to the cells. This assay is intended to identify compounds that not only don’t rescue, but are toxic themselves. 100% Viability is defined as the intensity value of the “no TNF” wells, cell treated with neither compound nor TNF. […]

RIPK3 kinase domain = target: T2, RIPK3 kinase domain (Homo sapiens, UniProt Q9Y572); experiment: ATP-competitive probe displacement assay, RIPK3; format: binding
T2 construct: purchased DiscoverX
T2 sequence (Q9Y572 21-287 limits assumed): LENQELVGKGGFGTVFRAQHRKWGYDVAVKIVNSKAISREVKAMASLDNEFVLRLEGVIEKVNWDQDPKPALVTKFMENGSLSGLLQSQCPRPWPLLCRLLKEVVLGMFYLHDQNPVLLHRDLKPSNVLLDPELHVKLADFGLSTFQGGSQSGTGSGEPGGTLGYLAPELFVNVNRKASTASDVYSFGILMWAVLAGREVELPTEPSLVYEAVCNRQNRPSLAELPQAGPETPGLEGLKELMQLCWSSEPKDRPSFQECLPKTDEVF
Method: (§1) Compound binding constants (KDs) were determined at DiscoverX using their KINOMEscan assay platform. This competition binding assay was previously described in Karaman et al. (2008)[18]. Briefly, full length MLKL was expressed in HEK-293 cells as a fusion with an NFκB DNA binding domain and subsequently tagged with a qPCR detection amplicon via interaction with NFκB. […] Twenty microliters of binding reactions were carried out in 384-well polypropylene plates for 1 hour at room temperature. Beads were subsequently washed and resuspended in elution buffer for 30 minutes at room temperature with shaking. The concentration of MLKL in the eluates was measured by qPCR and compound binding constants were calculated using a standard dose-response curve.
(§2) A similar approach was used to measure binding affinities for RIPK1 and RIPK3 kinase domains.

RIPK1 kinase domain = target: T3, RIPK1 kinase domain (Homo sapiens, UniProt Q13546); experiment: ATP-competitive probe displacement assay, RIPK1; format: binding; settings: average of duplicates
T3 construct: purchased DiscoverX
T3 sequence (Q13546 17-289 limits assumed): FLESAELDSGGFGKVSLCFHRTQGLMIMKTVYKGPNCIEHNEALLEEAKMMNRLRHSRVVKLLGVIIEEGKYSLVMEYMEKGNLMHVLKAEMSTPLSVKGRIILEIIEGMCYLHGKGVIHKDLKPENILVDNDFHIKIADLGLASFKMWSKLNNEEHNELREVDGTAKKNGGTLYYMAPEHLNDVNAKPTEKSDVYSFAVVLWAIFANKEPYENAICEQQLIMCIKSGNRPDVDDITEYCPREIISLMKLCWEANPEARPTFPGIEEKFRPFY
Method: as §1, §2

full length MLKL = target: T4, full length MLKL (Homo sapiens, UniProt Q8NB16); experiment: KINOMEscan ATP-competitive probe displacement (competition binding) assay, MLKL; settings: average of duplicates
T4 construct: purchased DiscoverX (KINOMEscan service); host or cells: HEK-293
T4 sequence (Q8NB16 1-471): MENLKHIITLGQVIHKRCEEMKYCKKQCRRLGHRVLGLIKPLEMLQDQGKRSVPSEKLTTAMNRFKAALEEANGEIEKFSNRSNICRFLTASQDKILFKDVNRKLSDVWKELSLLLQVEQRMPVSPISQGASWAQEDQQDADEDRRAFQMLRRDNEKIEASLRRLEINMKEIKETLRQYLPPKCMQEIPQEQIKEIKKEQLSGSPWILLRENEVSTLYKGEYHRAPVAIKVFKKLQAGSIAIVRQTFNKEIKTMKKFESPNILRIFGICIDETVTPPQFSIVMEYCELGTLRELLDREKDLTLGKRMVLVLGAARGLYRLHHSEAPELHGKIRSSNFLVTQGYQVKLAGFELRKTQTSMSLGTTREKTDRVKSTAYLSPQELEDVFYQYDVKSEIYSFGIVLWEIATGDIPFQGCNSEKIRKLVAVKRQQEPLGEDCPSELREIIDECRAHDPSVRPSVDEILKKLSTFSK
Method: as §1, with “This competition binding assay was previously described in Karaman et al. (2008)[18].” left out
as §2

CN(c1ccc(NC(=O)Nc2ccc(OC(F)(F)F)cc2)cc1)c1ccnc(Nc2cccc(S(N)(=O)=O)c2)n1 [cpd 1, reference compound]
ΔTm at 10 µM (N-terminal domain HSP90α): 1.5 °C | compound concentration at which cell viability became an issue (FADD (-/-) Jurkat cells): > 2000 nM

Nc1nccnc1C(=O)O[C@@H](C(=O)Nc1ccc(F)cc1)c1ccccc1 [cpd 4, 3-Amino-pyrazine-2-carboxylic acid (R)-(4-fluorophenylcarbamoyl)-phenyl-methyl ester]
displacement of the ATP probe from / binding to RIPK3 (in words) (RIPK3 kinase domain): without binding RIPK1 or RIPK3 | Kd (RIPK3 kinase domain; average of duplicates): > 30 µM | Kd (RIPK1 kinase domain): > 30 µM | Kd (full length MLKL): 0.23 µM
